Test results published in patent US20190183922A1, “NOVEL ACTIVE IMMUNOMODULATORY AGENT AND COMPOSITION CONTAINING SAME” (UNIVERSITE CLERMONT AUVERGNE, priority 2016, published 2019).
Where “and” joins values, the source holds several entries; their conditions need not be identical. Identical values can stand only once.

System: co-culture of human dermal endothelial cells (HMVECs) and normal human dermal fibroblasts (NHDFs)
Assay: Formation of pseudotubes in an HMVEC+NHDF co-culture (anti-vWF immunolabelling, image analysis)
Assay type: cell-based
Method: The effects of the high-molecular-weight sulphated polysaccharide (HMWP) on the formation of pseudotubes was studied in a co-culture of human dermal endothelial cells (HMVECs) and normal human dermal fibroblasts (NHDFs), in basal condition or stimulated by VEGF (analysis by immunolabelling in situ).
The HMVEC and NHDF cells in co-culture were seeded in 96-well plates and cultured for 24 hours in culture medium.
The culture medium used is as follows: • EBM-2 (Endothelial cell basal medium 2) supplemented with 5% foetal calf serum (FCS), rhEGF, rhFGF, R3 IGF-1, hydrocortisone, vitamin C, gentamycin, • DMEM supplemented with 2 mM L-glutamine, 50 U/ml penicillin, 50 μg/ml streptomycin and 10% FCS.
The medium was then replaced with test medium containing or not containing (control) the compound to be tested and/or the VEGF inductor reference tested at 100 ng/ml; the compound was tested simultaneously in basal and stimulated condition (in the absence and in the presence of VEGF).
The test medium used was as follows: • EBM-2 (Endothelial cell basal medium 2) supplemented with rhEGF, rhFGF, R3 IGF-1, hydrocortisone, vitamin C, gentamycin, • DMEM supplemented with 2 mM L-glutamine, 50 U/ml penicillin, 50 μg/ml streptomycin and 1% FCS.
The cells were then incubated for 7 days, repeating the treatment after incubating for 72 hours. All the experimental conditions were produced in triplicate (n=3).
After incubation, the culture medium was removed and the cells were rinsed, fixed and permeabilized. The cells were then labelled with anti-VWF (Von Willebrand Factor) primary antibody. […] Simultaneously, the cell nuclei were coloured with Hoechst 33258 (bis-benzimide).
The formation of the pseudotubes was observed using a NIKON Diaphot 300 microscope (×4 objective lens). The digital images (1 photo per well) were then recorded with a NIKON DS-Ri1 camera and the NIS-Elements 4.13.04 software.
The labelling was quantified by measuring the entire surface of the pseudotubes using ImageJ software.
The formation of pseudotubes in the co-culture of endothelial cells (HMVECs) and dermal fibroblasts (NHDFs) after incubating for 7 days was measured by image analysis following immunolabelling with an anti-vWF antibody, the vWF being specifically expressed by the HMVEC cells.
The stimulation percentage is calculated according to the following formula: […]
The inhibition percentage is calculated according to the following formula: […]

[1] = VEGF inductor reference 100 ng/ml, 7 days

Substance: VEGF
- % Control [1]: 1759%
- % Stimulation [1]: 1659%
- Surface of the pseudotubes (VEGF inductor reference 100 ng/ml, 7 days, individual wells): 2.15 mm^2 and 2.52 mm^2 and 1.84 mm^2
- Average Surface (VEGF inductor reference 100 ng/ml, 7 days, n=3): 2.17 mm^2
- Organization of the endothelial cells into pseudotubes (reference VEGF 100 ng/ml): clearly led to an organization of the endothelial cells into pseudotubes
